# Reference: ChEMBL document CHEMBL4130348, “Structure-activity relationship investigation for benzonaphthyridinone derivatives as novel potent Bruton's tyrosine kinase (BTK) irreversible inhibitors” (Eur J Med Chem, 2017)
# What was measured:
# A549 = assay: Antiproliferative activity against human A549 cells after 72 hrs by CellTiter-Glo assay; assay type: functional; details: A549, 72 h
# [1] = Antiproliferative activity against human PF138 cells after 72 hrs by CellTiter-Glo assay; assay type: functional
# MOLM-14 = assay: Antiproliferative activity against human MOLM14 cells after 72 hrs by CellTiter-Glo assay; assay type: functional; details: MOLM-14, 72 h
# [2] = system: Epidermal growth factor receptor (Homo sapiens), P00533 [T790M]; assay: Inhibition of TEL-fused EGFR T790M mutant (unknown origin) expressed in mouse BA/F3 cells after 72 hrs by CellTiter-Glo assay; assay type: cell-based
# U2932 = assay: Antiproliferative activity against human U2932 cells after 72 hrs by CellTiter-Glo assay; assay type: functional; details: U2932, 72 h
# NB-4 = assay: Antiproliferative activity against human NB4 cells after 72 hrs by CellTiter-Glo assay; assay type: functional; details: NB-4, 72 h
# K562 = assay: Antiproliferative activity against human K562 cells after 72 hrs by CellTiter-Glo assay; assay type: functional; details: K562, 72 h
# DU-145 = assay: Antiproliferative activity against human DU145 cells after 72 hrs by CellTiter-Glo assay; assay type: functional; details: DU-145, 72 h
# Ramos = assay: Antiproliferative activity against human Ramos cells after 72 hrs by CellTiter-Glo assay; assay type: functional
# [3] = system: Epidermal growth factor receptor (Homo sapiens), P00533 [L858R,T790M]; assay: Inhibition of TEL-fused EGFR T790M/L858R mutant (unknown origin) expressed in mouse BA/F3 cells after 72 hrs by CellTiter-Glo assay; assay type: cell-based
# SU-DHL-2 = assay: Antiproliferative activity against human SUDHL2 cells after 72 hrs by CellTiter-Glo assay; assay type: functional; details: SU-DHL-2, 72 h
# OCI-AML2 = assay: Antiproliferative activity against human OCI-AML2 cells after 72 hrs by CellTiter-Glo assay; assay type: functional; details: OCI-AML2, 72 h
# Pfeiffer = assay: Antiproliferative activity against human Pfeiffer cells after 72 hrs by CellTiter-Glo assay; assay type: functional
# cells [4] = assay type: functional; details: Homo sapiens, CLL cell, 72 h
# [5] = Antiproliferative activity against mouse BA/F3 cells after 72 hrs by CellTiter-Glo assay; assay type: cell-based, BaF3
# Rec1 = assay: Antiproliferative activity against human Rec1 cells after 72 hrs by CellTiter-Glo assay; assay type: functional; details: Rec1, 72 h
# [6] = biological target: Epidermal growth factor receptor (Homo sapiens) (UniProt P00533); assay: Inhibition of TEL-fused EGFR (unknown origin) expressed in mouse BA/F3 cells after 72 hrs by CellTiter-Glo assay; assay type: cell-based
# SKM-1 = assay: Antiproliferative activity against human SKM1 cells after 72 hrs by CellTiter-Glo assay; assay type: functional; details: SKM-1, 72 h
# [7] = biological target: Cytoplasmic tyrosine-protein kinase BMX (Homo sapiens) (UniProt P51813)
# Description: Inhibition of TEL-fused BMX (unknown origin) expressed in mouse BA/F3 cells after 72 hrs by CellTiter-Glo assay
# HEL = assay: Antiproliferative activity against human HEL cells after 72 hrs by CellTiter-Glo assay; assay type: functional
# [8] = biological target: Tyrosine-protein kinase JAK1 (Homo sapiens) (UniProt P23458); assay: Inhibition of TEL-fused JAK1 (unknown origin) expressed in mouse BA/F3 cells after 72 hrs by CellTiter-Glo assay; assay type: cell-based
# [9] = Antiproliferative activity against human RV1 cells after 72 hrs by CellTiter-Glo assay; assay type: functional; details: RV-1, 72 h
# [10] = biological target: T1, Tyrosine-protein kinase JAK3 (Homo sapiens, UniProt P52333); assay: Inhibition of recombinant GST-tagged human JAK3 expressed in baculovirus expression system using poly (4:1 Glu, Tyr) as substrate preincubated for 1 hr followed by substrate addition measured after 1 hr by ADP-glo assay
# T1 sequence (P52333 whole entry): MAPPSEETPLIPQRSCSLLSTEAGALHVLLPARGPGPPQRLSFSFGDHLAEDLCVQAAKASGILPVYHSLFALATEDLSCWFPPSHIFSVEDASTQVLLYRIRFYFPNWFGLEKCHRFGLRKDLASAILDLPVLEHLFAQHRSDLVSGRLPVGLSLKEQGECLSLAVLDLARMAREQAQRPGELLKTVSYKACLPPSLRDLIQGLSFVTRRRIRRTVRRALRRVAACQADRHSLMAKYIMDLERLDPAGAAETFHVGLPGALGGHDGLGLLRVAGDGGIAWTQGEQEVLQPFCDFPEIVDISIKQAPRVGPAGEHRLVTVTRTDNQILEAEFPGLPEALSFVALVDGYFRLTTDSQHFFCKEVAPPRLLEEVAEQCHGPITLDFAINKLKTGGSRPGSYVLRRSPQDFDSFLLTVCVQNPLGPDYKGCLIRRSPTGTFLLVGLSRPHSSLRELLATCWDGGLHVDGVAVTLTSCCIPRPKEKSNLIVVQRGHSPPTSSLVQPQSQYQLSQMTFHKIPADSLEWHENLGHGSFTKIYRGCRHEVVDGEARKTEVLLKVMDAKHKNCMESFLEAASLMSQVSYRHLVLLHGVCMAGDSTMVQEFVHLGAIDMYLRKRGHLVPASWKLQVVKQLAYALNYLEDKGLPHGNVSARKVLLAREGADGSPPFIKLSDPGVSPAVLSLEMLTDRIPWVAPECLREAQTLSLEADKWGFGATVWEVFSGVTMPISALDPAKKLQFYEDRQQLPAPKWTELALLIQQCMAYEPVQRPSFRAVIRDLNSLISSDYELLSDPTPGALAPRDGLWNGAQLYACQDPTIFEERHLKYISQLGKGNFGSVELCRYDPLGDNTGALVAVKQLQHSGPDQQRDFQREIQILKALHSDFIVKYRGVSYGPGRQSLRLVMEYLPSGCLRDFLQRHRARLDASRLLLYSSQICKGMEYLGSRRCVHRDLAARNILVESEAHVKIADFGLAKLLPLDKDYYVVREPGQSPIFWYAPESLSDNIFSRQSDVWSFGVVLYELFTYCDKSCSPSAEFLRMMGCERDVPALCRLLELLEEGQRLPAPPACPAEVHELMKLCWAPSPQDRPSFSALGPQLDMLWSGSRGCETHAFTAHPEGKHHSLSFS
# cells [11] = assay type: functional; details: Homo sapiens, CLL cell, 72 h; remark: listed apart in the source
# [12] = biological target: Tyrosine-protein kinase JAK2 (Homo sapiens) (UniProt O60674); assay: Inhibition of TEL-fused JAK2 (unknown origin) expressed in mouse BA/F3 cells after 72 hrs by CellTiter-Glo assay; assay type: cell-based
# U-937 = assay: Antiproliferative activity against human U937 cells after 72 hrs by CellTiter-Glo assay; assay type: functional; details: U-937, 72 h
# HL-60 = assay: Antiproliferative activity against human HL60 cells after 72 hrs by CellTiter-Glo assay; assay type: functional; details: HL-60, 72 h
# NOMO-1 = assay: Antiproliferative activity against human NOMO1 cells after 72 hrs by CellTiter-Glo assay; assay type: functional; details: NOMO-1, 72 h
# CMK = assay: Antiproliferative activity against human CMK cells after 72 hrs by CellTiter-Glo assay; assay type: functional
# LNCaP C4-2 = assay: Antiproliferative activity against human C4-2 cells after 72 hrs by CellTiter-Glo assay; assay type: functional; details: LNCaP C4-2, 72 h
# Chain of Epidermal growth factor receptor (Homo sapiens), P00533 [L858R,T790M] (P00533 whole entry T790M/L858R, looked up, the tested form may be a part): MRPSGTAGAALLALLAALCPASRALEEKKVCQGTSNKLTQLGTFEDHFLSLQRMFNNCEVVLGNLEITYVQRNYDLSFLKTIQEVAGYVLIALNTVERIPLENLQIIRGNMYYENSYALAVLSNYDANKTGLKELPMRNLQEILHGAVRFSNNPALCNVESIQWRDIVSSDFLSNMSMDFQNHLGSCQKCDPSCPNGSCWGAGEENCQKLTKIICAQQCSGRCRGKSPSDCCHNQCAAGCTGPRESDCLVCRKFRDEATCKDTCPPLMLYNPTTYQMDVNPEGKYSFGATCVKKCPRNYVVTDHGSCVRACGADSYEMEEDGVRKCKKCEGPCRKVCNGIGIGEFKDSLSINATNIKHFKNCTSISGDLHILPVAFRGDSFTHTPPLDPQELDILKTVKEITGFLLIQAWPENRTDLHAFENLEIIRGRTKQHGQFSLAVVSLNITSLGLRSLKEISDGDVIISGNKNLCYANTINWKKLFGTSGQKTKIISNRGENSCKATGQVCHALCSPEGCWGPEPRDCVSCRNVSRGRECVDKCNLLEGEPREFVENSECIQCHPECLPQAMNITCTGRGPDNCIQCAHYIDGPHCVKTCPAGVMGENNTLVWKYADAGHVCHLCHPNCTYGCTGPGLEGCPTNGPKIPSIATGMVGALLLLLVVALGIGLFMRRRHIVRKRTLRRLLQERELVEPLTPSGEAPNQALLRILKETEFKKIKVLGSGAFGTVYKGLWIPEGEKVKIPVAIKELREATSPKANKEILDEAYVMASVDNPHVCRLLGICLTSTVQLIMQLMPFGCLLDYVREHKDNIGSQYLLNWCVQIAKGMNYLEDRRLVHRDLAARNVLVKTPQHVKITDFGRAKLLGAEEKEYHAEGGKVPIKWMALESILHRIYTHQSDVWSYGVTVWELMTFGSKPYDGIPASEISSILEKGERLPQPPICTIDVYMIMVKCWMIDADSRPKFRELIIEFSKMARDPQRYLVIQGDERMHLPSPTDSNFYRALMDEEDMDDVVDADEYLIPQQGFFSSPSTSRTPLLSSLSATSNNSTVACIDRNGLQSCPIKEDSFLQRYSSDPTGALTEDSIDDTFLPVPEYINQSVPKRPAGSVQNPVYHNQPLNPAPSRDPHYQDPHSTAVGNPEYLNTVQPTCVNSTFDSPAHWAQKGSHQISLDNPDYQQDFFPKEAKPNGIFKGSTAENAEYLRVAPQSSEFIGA
# Chain of Cytoplasmic tyrosine-protein kinase BMX (Homo sapiens) (P51813 whole entry): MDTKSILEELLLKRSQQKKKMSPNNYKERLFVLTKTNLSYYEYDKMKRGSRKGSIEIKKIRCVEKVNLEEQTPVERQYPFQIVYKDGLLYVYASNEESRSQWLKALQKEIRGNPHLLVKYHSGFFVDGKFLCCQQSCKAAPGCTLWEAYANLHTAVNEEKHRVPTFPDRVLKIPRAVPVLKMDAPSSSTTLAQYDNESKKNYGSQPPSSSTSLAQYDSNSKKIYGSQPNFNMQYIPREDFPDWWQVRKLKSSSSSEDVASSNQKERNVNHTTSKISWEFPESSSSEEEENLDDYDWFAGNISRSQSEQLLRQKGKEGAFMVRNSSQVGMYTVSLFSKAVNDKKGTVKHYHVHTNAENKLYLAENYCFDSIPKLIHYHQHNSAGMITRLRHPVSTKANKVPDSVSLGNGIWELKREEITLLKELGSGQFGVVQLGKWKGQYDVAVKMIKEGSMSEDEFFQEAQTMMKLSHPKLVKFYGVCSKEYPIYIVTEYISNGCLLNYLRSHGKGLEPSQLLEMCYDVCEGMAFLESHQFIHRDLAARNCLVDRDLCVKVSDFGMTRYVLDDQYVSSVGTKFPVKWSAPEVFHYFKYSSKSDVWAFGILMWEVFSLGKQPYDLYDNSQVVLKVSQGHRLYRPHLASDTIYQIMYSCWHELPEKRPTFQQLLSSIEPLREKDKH
# Chain of Tyrosine-protein kinase JAK2 (Homo sapiens) (O60674 whole entry, the tested form may be a part): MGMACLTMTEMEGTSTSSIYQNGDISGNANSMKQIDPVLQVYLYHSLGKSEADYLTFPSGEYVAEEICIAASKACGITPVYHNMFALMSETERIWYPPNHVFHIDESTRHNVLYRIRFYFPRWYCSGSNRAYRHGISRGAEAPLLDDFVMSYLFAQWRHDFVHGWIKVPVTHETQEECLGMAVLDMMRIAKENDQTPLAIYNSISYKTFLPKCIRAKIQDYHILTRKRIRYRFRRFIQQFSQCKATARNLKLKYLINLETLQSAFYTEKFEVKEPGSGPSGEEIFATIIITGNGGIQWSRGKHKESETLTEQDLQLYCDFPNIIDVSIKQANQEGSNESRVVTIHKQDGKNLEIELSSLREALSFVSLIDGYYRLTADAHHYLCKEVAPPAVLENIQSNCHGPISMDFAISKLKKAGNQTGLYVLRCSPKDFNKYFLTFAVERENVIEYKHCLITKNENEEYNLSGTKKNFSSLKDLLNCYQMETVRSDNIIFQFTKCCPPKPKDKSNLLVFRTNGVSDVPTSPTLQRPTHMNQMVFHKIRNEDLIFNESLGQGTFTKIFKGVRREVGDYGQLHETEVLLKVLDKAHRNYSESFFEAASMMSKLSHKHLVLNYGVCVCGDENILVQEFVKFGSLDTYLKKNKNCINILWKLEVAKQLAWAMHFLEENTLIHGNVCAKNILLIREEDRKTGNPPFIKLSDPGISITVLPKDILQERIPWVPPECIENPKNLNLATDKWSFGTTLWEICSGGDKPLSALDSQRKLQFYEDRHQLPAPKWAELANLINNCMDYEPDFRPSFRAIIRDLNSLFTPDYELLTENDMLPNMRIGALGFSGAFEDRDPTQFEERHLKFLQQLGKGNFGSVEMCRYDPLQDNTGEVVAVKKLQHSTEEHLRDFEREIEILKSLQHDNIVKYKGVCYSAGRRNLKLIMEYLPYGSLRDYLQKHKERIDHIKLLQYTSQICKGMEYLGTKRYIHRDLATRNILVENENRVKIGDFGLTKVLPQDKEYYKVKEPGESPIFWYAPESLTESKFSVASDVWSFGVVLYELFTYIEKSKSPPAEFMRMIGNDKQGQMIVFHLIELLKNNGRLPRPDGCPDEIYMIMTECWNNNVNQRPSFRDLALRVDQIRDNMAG
# Chain of Epidermal growth factor receptor (Homo sapiens) (P00533 whole entry, the tested form may be a part): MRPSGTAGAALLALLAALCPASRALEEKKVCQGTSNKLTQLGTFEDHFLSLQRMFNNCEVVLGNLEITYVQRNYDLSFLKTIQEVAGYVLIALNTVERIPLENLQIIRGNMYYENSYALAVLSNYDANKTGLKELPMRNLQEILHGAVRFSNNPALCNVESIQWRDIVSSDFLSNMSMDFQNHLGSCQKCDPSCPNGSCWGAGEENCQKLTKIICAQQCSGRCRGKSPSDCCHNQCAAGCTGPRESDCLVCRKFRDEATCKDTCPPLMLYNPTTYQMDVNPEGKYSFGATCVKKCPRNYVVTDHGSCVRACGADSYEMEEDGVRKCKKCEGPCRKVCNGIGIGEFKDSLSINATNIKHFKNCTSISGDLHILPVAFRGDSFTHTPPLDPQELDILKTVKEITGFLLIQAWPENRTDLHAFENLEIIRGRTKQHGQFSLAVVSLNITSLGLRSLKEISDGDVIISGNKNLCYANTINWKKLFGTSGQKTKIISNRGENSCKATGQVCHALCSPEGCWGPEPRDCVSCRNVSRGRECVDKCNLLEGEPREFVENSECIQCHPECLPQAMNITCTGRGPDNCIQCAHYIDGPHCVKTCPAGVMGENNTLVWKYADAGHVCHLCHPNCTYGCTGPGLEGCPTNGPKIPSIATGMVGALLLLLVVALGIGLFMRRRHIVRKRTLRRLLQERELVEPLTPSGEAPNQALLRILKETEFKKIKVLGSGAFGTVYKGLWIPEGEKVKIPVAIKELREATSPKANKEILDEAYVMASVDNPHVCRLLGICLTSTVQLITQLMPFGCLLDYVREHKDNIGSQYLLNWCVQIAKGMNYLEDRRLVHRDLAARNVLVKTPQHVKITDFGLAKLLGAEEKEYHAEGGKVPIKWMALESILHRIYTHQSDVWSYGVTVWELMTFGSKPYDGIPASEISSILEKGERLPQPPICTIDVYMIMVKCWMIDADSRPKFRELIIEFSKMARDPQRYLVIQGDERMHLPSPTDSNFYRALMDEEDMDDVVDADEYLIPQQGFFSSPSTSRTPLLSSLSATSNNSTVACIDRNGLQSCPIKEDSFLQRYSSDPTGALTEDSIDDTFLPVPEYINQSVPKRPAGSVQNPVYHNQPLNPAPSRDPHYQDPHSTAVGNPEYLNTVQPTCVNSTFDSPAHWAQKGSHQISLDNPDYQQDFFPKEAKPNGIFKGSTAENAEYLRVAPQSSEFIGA
GI50 (A549) [µM],GI50 (MOLM-14) [nM],GI50 [2] [nM],GI50 (K562) [µM],GI50 (DU-145) [µM],GI50 (Ramos) [µM],GI50 [3] [nM],GI50 (SU-DHL-2) [µM],GI50 (OCI-AML2) [µM],GI50 [6] [nM],GI50 (SKM-1) [nM],GI50 [7] [nM],SMILES,GI50 [1] [µM],GI50 (U2932) [µM],GI50 (NB-4) [µM],GI50 (Pfeiffer) [µM],GI50 (cells [4]) [µM],GI50 at 72 h [5] [µM],GI50 (Rec1) [nM],GI50 (HEL) [nM],also measured
3.7,1500,918,> 10,> 10,3.5,1590,> 10,7.8,2660,2500,18,C=CC(=O)Nc1cc(-n2c(=O)ccc3cnc4ccc(-n5cccn5)cc4c32)ccc1C,8.8,7.9,3.7,5.8,3.7,> 10,1600,1800,GI50 [8]: 2670 nM; GI50 [9]: > 10 µM; IC50 [10]: > 10 µM; GI50 (cells [11]): 10.3 µM; GI50 [12]: 2100 nM; GI50 (U-937): > 10 µM; GI50 (HL-60): 3.8 µM; GI50 (NOMO-1): 4.9 µM; GI50 (CMK): 4.3 µM; GI50 (LNCaP C4-2): > 10 µM
> 10,> 10000,> 10000,> 10,> 10,> 10,> 10000,> 10,> 10,> 10000,> 10000,> 10000,CCC(=O)Nc1cc(-n2c(=O)ccc3cnc4ccc(-n5cccn5)cc4c32)ccc1C,> 10,> 10,> 10,> 10,> 10,> 10,> 10000,> 10000,GI50 [8]: > 10000 nM; GI50 [9]: > 10 µM; IC50 [10]: > 10 µM; GI50 (cells [11]): > 10 µM; GI50 [12]: > 10000 nM; GI50 (U-937): > 10 µM; GI50 (HL-60): > 10 µM; GI50 (NOMO-1): > 10 µM; GI50 (CMK): > 10 µM; GI50 (LNCaP C4-2): > 10 µM
